Columns and labels:
HIV-1 IN mutant Y143R = target: T1, HIV-1 IN mutant Y143R (Human immunodeficiency virus type 1 group M subtype B, UniProt P12497, Y1290R); assay: Gel-based IN strand transfer assay, Y143R mutant; format: biochemical
T1 construct: RAL-resistant HIV-1 mutant integrases; made in house; host or cells: E. coli RosettaII
Protocol: (§1) IN reactions were carried out by adding drugs or an equivalent volume of 100% DMSO (dimethyl sulfoxide, used as the drug solvent) to a mixture of 20 nM duplex DNA (21T/21B) and 400 nM IN in 50 mM MOPS pH 7.2, 7.5 mM MgCl2, and 14 mM 2-mercaptoethanol. Reactions were performed at 37 °C for 2 h and quenched by addition of an equal volume of loading buffer [formamide containing 1% SDS (sodium dodecyl sulfate), 0.25% bromophenol blue, and xylene cyanol]. Reaction products were separated in 16% polyacrylamide denaturing sequencing gels. Dried gels were visualized using a Typhoon 8600 (GE Healthcare, Piscataway, NJ, USA). Densitometric analyses were performed using the ImageQuant 5.1 software from GE Healthcare. Data analyses (linear regression, IC50 determination, and standard deviation) were performed using Prism 6.05 software from GraphPad.

HIV-1 IN mutant N155H = target: T2, HIV-1 IN mutant N155H (Human immunodeficiency virus type 1 group M subtype B, UniProt P12497, N1302H); assay: biochemical; format: biochemical
T2 construct: RAL-resistant HIV-1 mutant integrases; made in house; host or cells: E. coli RosettaII
Protocol: as §1

full-length IN = target: T3, full-length IN (Human immunodeficiency virus type 1 group M subtype B, UniProt P12497); assay: Disintegration reaction, full-length IN; format: biochemical, HIV-1; conditions: branched substrate
T3 construct: using full-length IN (1–288), the isolated catalytic core domain (CCD) (51–212); made in house; host or cells: E. coli RosettaII
From the text: (§2) Conventional IN strand transfer inhibitors bind at the interface created by the protein, viral DNA, and two magnesium cations in the catalytic site of the enzyme. Because stilbene disulfonic acid derivatives inhibit both 3′-P and ST with a similar efficiency, they may act outside the IN catalytic site. To determine if IN domains other than the catalytic core domain (CCD) are involved in the inhibitory activity of NSC34931, we tested this compound on disintegration, the only IN-mediated reaction that can be catalyzed by the isolated CCD. Disintegration is equivalent to a reverse-ST reaction (Figure 3A). Using a branched substrate, the WT enzyme as well as the isolated CCD catalyzed disintegration with similar efficiency (Figure 3B). NSC34931 inhibited disintegration catalyzed by the full-length IN at concentrations above 4.1 µM (Figure 3B,C). However, NSC34931 was unable to inhibit disintegration catalyzed by the CCD at concentrations up to 37 µM (Figure 3B,C). These experiments indicate that the N-terminal domain (NTD) and/or the C-terminal domain (CTD) are essential for IN inhibition by NSC34931.
(§3) Figure 3 Inhibition of the disintegration reaction by NSC34931. (A) Schematic representation of the disintegration reaction. […]

[1] = target: T4, isolated catalytic core domain (CCD) of IN (Human immunodeficiency virus type 1 group M subtype B, UniProt P12497); assay: Disintegration reaction, isolated catalytic core domain; format: biochemical, HIV-1; conditions: branched substrate
T4 construct: the isolated catalytic core domain (CCD) (51–212); made in house; host or cells: E. coli RosettaII
From the text: as §2, §3

[2] = target: T5, isolated C-terminal domain (CTD) (220–288) (Human immunodeficiency virus type 1 group M subtype B, UniProt P12497); assay: Schiff base IN-DNA crosslinking assay, isolated CTD; format: binding, HIV-1
T5 construct: the isolated C-terminal domain (CTD) (220–288); made in house; host or cells: E. coli RosettaII
From the text: To gain further evidence that NSC34931 interferes with DNA binding, and to determine the role of outer domains in this inhibition, we evaluated the ability of NSC34931 to inhibit the formation of IN-DNA crosslinks using our previously described Schiff base assay. Briefly, a deoxyuracyl nucleotide is incorporated in the DNA substrate to generate an abasic site via uracyl DNA glycosylase. IN forms a covalent complex (Schiff base), which can be stabilized by reduction with sodium borohydride (Figure 5A). Full-length IN, but also the isolated CCD or CTD domains, can crosslink DNA ([…]). Consistent with anisotropy data, NSC34931 suppresses the formation of IN-DNA crosslinks in the context of the full-length IN (Figure 5B, upper gel). Of note, the effective dose to inhibit this reaction is similar to that needed to inhibit 3′-P or ST (about 0.45 µM). In contrast, the IN CCD requires a 10 times higher concentration of compound to prevent DNA crosslinking, confirming that the NTD or the CTD are important for NSC34931 inhibition. Lastly, the same experiment was conducted with the isolated CTD (Figure 5B, lower gel).
Figure 5 Inhibition of IN-DNA binding by NSC34931. (A) Principle of the Schiff base crosslinking assay. An abasic site was introduced by uracil DNA glycosylase in the DNA substrate at the -12 position. […]

[3] = test system: VSV pseudo-typed HIV-1 virus particles; assay: organism not typed; format: cell-based
HIV-1 IN = target: T6, HIV-1 IN (Human immunodeficiency virus type 1 group M subtype B, UniProt P12497); assay: Synergy test with the active site inhibitor MK-2048; format: biochemical; conditions: subinhibitory dose of stilbene disulfonic acid derivative; IC50 of MK-2048 not affected; data not shown
T6 construct: 250 nM of recombinant HIV-1 integrase; made in house; host or cells: E. coli RosettaII

in vitro = conditions: human

O=S(=O)(O)c1cc(/N=N/c2cc(S(=O)(=O)O)c3ccccc3c2O)ccc1/C=C/c1ccc(/N=N/c2cc(S(=O)(=O)O)c3ccccc3c2O)cc1S(=O)(=O)O [NSC34931]
IC50 (HIV-1 IN mutant Y143R): 0.24 µM
IC50 (HIV-1 IN mutant N155H): 0.16 µM
concentrations inhibiting disintegration (full-length IN): above 4.1 µM
concentration up to which disintegration is not inhibited [1]: > 37 µM
inhibition of CTD-DNA crosslinks [2]: in the same concentration range than in the context of the full-length enzyme
Selectivity Index SI [3]: 19.2
EC50 ([3]; read-out: Ex Vivo Antiviral Activity EC50): 3.07 µM
synergy with active site inhibitor MK-2048 (HIV-1 IN): could not see any cooperative effect
CC50 (in vitro): 59 µM

— PMC6832134, “Discovery of Novel Integrase Inhibitors Acting outside the Active Site Through High-Throughput Screening” (Molecules, 2019)
